Assays:
Assay in all cases: Bliss excess, mean over the matrix (fraction); higher = more synergy
[1] = system: MS751 (Cervical Carcinoma)
Summary of the method: (§1)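 After 24 hours at 37°C and 5% CO2 in 1536-well plates, cells in DMEM/F12 or RPMI plus 10% FBS received two-drug dose matrices for 72 hours. Viability came from CellTiter-Glo 2.0 luminescence and was scaled as inhibition, anchored at 0 by vehicle wells and at 1 by blank wells. Combination Emax is taken as the second-highest inhibition in the matrix, and Bliss excess as the observed combination effect less EA + EB − EA·EB, with EA and EB the single-agent effects.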

[2] = system: TOV-112D (Ovarian Carcinoma)
Summary of the method: as §1

CHP-212 (Neuroblastoma) = system: CHP-212 (Neuroblastoma)
Summary of the method: as §1

[3] = system: BFTC-905 (Bladder Carcinoma)
Summary of the method: as §1

[4] = system: NCI-H1792 (Lung Adenocarcinoma)
Summary of the method: as §1

[5] = system: K-562 (Chronic Myelogenous Leukemia)
Summary of the method: as §1

[6] = system: HL-60 (Acute Myeloid Leukemia)
Summary of the method: as §1

TC-71 (Ewing's Sarcoma) = system: TC-71 (Ewing's Sarcoma)
Summary of the method: as §1

ES1 (Ewing's Sarcoma) = system: ES1 (Ewing's Sarcoma)
Summary of the method: as §1

[7] = system: MOLT-16 (T-Lymphoblastic Leukemia)
Summary of the method: as §1

LN-18 (Glioblastoma) = system: LN-18 (Glioblastoma)
Summary of the method: as §1

[8] = system: GR-ST (B-Lymphoblastic Leukemia)
Summary of the method: as §1

[9] = system: KM12 (Colorectal Carcinoma)
Summary of the method: as §1

WIL2-NS (Non-Cancerous) = system: WIL2-NS (Non-Cancerous)
Summary of the method: as §1

[10] = system: KYSE-180 (Esophageal Squamous Cell Carcinoma)
Summary of the method: as §1

ES8 (Ewing's Sarcoma) = system: ES8 (Ewing's Sarcoma)
Summary of the method: as §1

[11] = system: SR (Other Blood Carcinomas)
Summary of the method: as §1

[12] = system: PANC-08-13 (Pancreatic Carcinoma)
Summary of the method: as §1

[13] = system: DND-41 (T-Lymphoblastic Leukemia)
Summary of the method: as §1

U251 (Low Grade Glioma) = system: U251 (Low Grade Glioma)
Summary of the method: as §1

## CCc1c2c(nc3ccc(O)cc13)-c1cc3c(c(=O)n1C2)COC(=O)[C@]3(O)CC [SN-38] + CN(C)CCCOc1ccc(-c2ccc3ncc4c(c3c2)n(C2CCOCC2)c(=O)n4C)cn1 [AZD0156] (first compound max 0.3 µM, 7x7, partner max 1 µM)
[1]
  Bliss excess: 0.0355
[2]
  Bliss excess: 0.0401
CHP-212 (Neuroblastoma)
  Bliss excess: 0.0143
[3]
  Bliss excess: 0.0608
[4]
  Bliss excess: 0.0517
[5]
  Bliss excess: 0.0331
[6]
  Bliss excess: 0.115
TC-71 (Ewing's Sarcoma)
  Bliss excess: 0.0736
ES1 (Ewing's Sarcoma)
  Bliss excess: 0.0784
[7]
  Bliss excess: 0.0538
LN-18 (Glioblastoma)
  Bliss excess: 0.0759
[8]
  Bliss excess: -0.0319
[9]
  Bliss excess: 0.0711
WIL2-NS (Non-Cancerous)
  Bliss excess: 0.08
[10]
  Bliss excess: 0.0421
ES8 (Ewing's Sarcoma)
  Bliss excess: 0.0458
[11]
  Bliss excess: 0.0878
[12]
  Bliss excess: -0.0316
[13]
  Bliss excess: -0.0584
U251 (Low Grade Glioma)
  Bliss excess: -0.0239

## C[C@@H](c1ccc2nccn2c1)n1nnc2ncc(-c3cnn(C)c3)nc21 [Savolitinib] + CC1(C)CCC(CN2CCN(c3ccc(C(=O)NS(=O)(=O)c4ccc(NCC5CCOCC5)c([N+](=O)[O-])c4)c(Oc4cnc5[nH]ccc5c4)c3)CC2)=C(c2ccc(Cl)cc2)C1 [Venetoclax] (first compound max 1 µM, 7x7, partner max 1 µM)
[1]
  Bliss excess: -0.028
[2]
  Bliss excess: -0.0489
CHP-212 (Neuroblastoma)
  Bliss excess: -0.0707
[3]
  Bliss excess: -0.0416
[4]
  Bliss excess: -0.0597
[5]
  Bliss excess: -0.0187
[6]
  Bliss excess: -0.0202
TC-71 (Ewing's Sarcoma)
  Bliss excess: -0.0517
ES1 (Ewing's Sarcoma)
  Bliss excess: -0.0515
[7]
  Bliss excess: -0.0788
LN-18 (Glioblastoma)
  Bliss excess: -0.0265
[8]
  Bliss excess: -0.0073
[9]
  Bliss excess: -0.0559
WIL2-NS (Non-Cancerous)
  Bliss excess: -0.0285
[10]
  Bliss excess: -0.0326
ES8 (Ewing's Sarcoma)
  Bliss excess: 0.0191
[11]
  Bliss excess: 0.0747
[12]
  Bliss excess: -0.0436
[13]
  Bliss excess: -0.0082
U251 (Low Grade Glioma)
  Bliss excess: -0.0938

## C[C@@H](c1ccc2nccn2c1)n1nnc2ncc(-c3cnn(C)c3)nc21 [Savolitinib] + Cc1c2c(nn1C)CSCc1cc(n(C)n1)CSc1cc(c3ccccc3c1)OCCCc1c(C(=O)O)n(C)c3c-2c(Cl)ccc13 [AZD5991] (first compound max 1 µM, 7x7, partner max 1 µM)
[1]
  Bliss excess: -0.0701
[2]
  Bliss excess: -0.0242
CHP-212 (Neuroblastoma)
  Bliss excess: -0.0437
[3]
  Bliss excess: -0.0523
[4]
  Bliss excess: -0.0279
[5]
  Bliss excess: 0.0145
[6]
  Bliss excess: -0.0266
TC-71 (Ewing's Sarcoma)
  Bliss excess: -0.021
ES1 (Ewing's Sarcoma)
  Bliss excess: -0.0152
[7]
  Bliss excess: -0.0289
LN-18 (Glioblastoma)
  Bliss excess: 0.005
[8]
  Bliss excess: -0.037
[9]
  Bliss excess: -0.0256
WIL2-NS (Non-Cancerous)
  Bliss excess: -0.0262
[10]
  Bliss excess: -0.0117
ES8 (Ewing's Sarcoma)
  Bliss excess: 0.0495
[11]
  Bliss excess: 0.0023
[12]
  Bliss excess: -0.0452
[13]
  Bliss excess: -0.0188
U251 (Low Grade Glioma)
  Bliss excess: -0.0691

## Cn1cnc2c(F)c(Nc3ccc(Br)cc3Cl)c(C(=O)NOCCO)cc21 [Selumetinib] + C=CCn1c(=O)c2cnc(Nc3ccc(N4CCN(C)CC4)cc3)nc2n1-c1cccc(C(C)(C)O)n1 [AZD1775] (first compound max 10 µM, partner max 1 µM)
[1]
  Bliss excess: 0.0171
[2]
  Bliss excess: -0.0497
CHP-212 (Neuroblastoma)
  Bliss excess: -0.0257
[3]
  Bliss excess: -0.0654
[4]
  Bliss excess: -0.0647
[5]
  Bliss excess: 0.0752
[6]
  Bliss excess: -0.0732
TC-71 (Ewing's Sarcoma)
  Bliss excess: -0.039
ES1 (Ewing's Sarcoma)
  Bliss excess: -0.0255
[7]
  Bliss excess: 0.0252
LN-18 (Glioblastoma)
  Bliss excess: -0.0103
[8]
  Bliss excess: -0.0368
[9]
  Bliss excess: -0.0672
WIL2-NS (Non-Cancerous)
  Bliss excess: 0.0363
[10]
  Bliss excess: -0.122
ES8 (Ewing's Sarcoma)
  Bliss excess: -0.185
[11]
  Bliss excess: -0.0132
[12]
  Bliss excess: -0.0849
[13]
  Bliss excess: -0.0248
U251 (Low Grade Glioma)
  Bliss excess: -0.0365

## Cn1cnc2c(F)c(Nc3ccc(Br)cc3Cl)c(C(=O)NOCCO)cc21 [Selumetinib] + CC(C)n1c(=O)n(C)c2cnc3cc(F)c(-c4ccc(OCCCN5CCCCC5)nc4)cc3c21 [AZD1390] (first compound max 10 µM, 7x7, partner max 0.3 µM)
[1]
  Bliss excess: -0.0171
[2]
  Bliss excess: -0.0262
CHP-212 (Neuroblastoma)
  Bliss excess: -0.0337
[3]
  Bliss excess: -0.0074
[4]
  Bliss excess: -0.0075
[5]
  Bliss excess: -0.0345
[6]
  Bliss excess: -0.073
TC-71 (Ewing's Sarcoma)
  Bliss excess: -0.0211
ES1 (Ewing's Sarcoma)
  Bliss excess: -0.0365
[7]
  Bliss excess: 0.0182
LN-18 (Glioblastoma)
  Bliss excess: -0.0148
[8]
  Bliss excess: -0.0084
[9]
  Bliss excess: -0.0376
WIL2-NS (Non-Cancerous)
  Bliss excess: -0.0251
[10]
  Bliss excess: -0.042
ES8 (Ewing's Sarcoma)
  Bliss excess: -0.0529
[11]
  Bliss excess: -0.0171
[12]
  Bliss excess: -0.0365
[13]
  Bliss excess: -0.0022
U251 (Low Grade Glioma)
  Bliss excess: -0.0361

## Cn1cnc2c(F)c(Nc3ccc(Br)cc3Cl)c(C(=O)NOCCO)cc21 [Selumetinib] + CCN(CCO)CCCOc1ccc2c(Nc3cc(CC(=O)Nc4cccc(F)c4)[nH]n3)ncnc2c1 [AZD2811] (first compound max 10 µM, 7x7, partner max 1 µM)
[1]
  Bliss excess: 0.055
[2]
  Bliss excess: -0.01
CHP-212 (Neuroblastoma)
  Bliss excess: -0.0316
[3]
  Bliss excess: 0.0253
[4]
  Bliss excess: 0.0143
[5]
  Bliss excess: 0.0352
[6]
  Bliss excess: 0.0017
TC-71 (Ewing's Sarcoma)
  Bliss excess: 0.0298
ES1 (Ewing's Sarcoma)
  Bliss excess: 0.0048
[7]
  Bliss excess: -0.0271
LN-18 (Glioblastoma)
  Bliss excess: -0.0192
[8]
  Bliss excess: 0.0702
[9]
  Bliss excess: -0.0409
WIL2-NS (Non-Cancerous)
  Bliss excess: 0.0264
[10]
  Bliss excess: -0.0408
ES8 (Ewing's Sarcoma)
  Bliss excess: -0.0089
[11]
  Bliss excess: 0.0128
[12]
  Bliss excess: -0.0278
[13]
  Bliss excess: 0.0298
U251 (Low Grade Glioma)
  Bliss excess: -0.034

## Cn1cnc2c(F)c(Nc3ccc(Br)cc3Cl)c(C(=O)NOCCO)cc21 [Selumetinib] + C[C@@H]1COCCN1C2=NC(=NC(=C2)C3(CC3)[S@](=N)(=O)C)C4=C5C=CNC5=NC=C4 [AZD6738] (first compound max 10 µM, 7x7, partner max 10 µM)
[1]
  Bliss excess: 0.0516
[2]
  Bliss excess: -0.0377
CHP-212 (Neuroblastoma)
  Bliss excess: -0.0474
[3]
  Bliss excess: -0.0351
[4]
  Bliss excess: -0.0049
[5]
  Bliss excess: -0.0116
[6]
  Bliss excess: -0.039
TC-71 (Ewing's Sarcoma)
  Bliss excess: -0.022
ES1 (Ewing's Sarcoma)
  Bliss excess: -0.0257
[7]
  Bliss excess: 0.0063
LN-18 (Glioblastoma)
  Bliss excess: -0.0318
[8]
  Bliss excess: -0.0301
[9]
  Bliss excess: 0.0286
WIL2-NS (Non-Cancerous)
  Bliss excess: -0.033
[10]
  Bliss excess: -0.0249
ES8 (Ewing's Sarcoma)
  Bliss excess: -0.069
[11]
  Bliss excess: -0.0169
[12]
  Bliss excess: -0.0351
[13]
  Bliss excess: -0.0233
U251 (Low Grade Glioma)
  Bliss excess: -0.0149
